“Also recorded” adds a separate entry of the source.
Experiments:
[1] = tested on: AChE; settings: ref 43; cited from earlier work
[2] = tested on: Madin-Darby canine kidney (MDCK) cells; experiment: Cytotoxicity test, CCK-8 assay; settings: 50 µM, 24 h, CCK-8
Method: (§1) Madin-Darby canine kidney (MDCK) cells and human acute promyelocytic leukemia (HL-60) cells were obtained from the Korean Cell Line Bank (Seoul, Korea). […] Cultures were maintained at 37 °C under 5% CO2, and media were changed every two days.
(§2) Cell viabilities were determined using the CCK-8 assay. Briefly, MDCK cells or HL-60 cells were resuspended at 1 × 10^5 or 3 × 10^5 cells/mL and suspensions (100 µL) were added to wells of a 96-well plate and incubated in 5% CO2 atmosphere at 37 °C for 24 h. After incubation, 100 µL of each medium was treated with compounds at 1, 3, 10, 30, or 50 µM and incubated in 5% CO2 at 37 °C for 24 h. CCK-8 (10 µL/well) was then added to 100 µL aliquots from each cell and incubated 2–4 h. Absorbances were measured at 450 nm using a microplate reader (Versamax, Molecular Devices, San Jose, CA, USA).
(§3) Both cell lines were treated with each compound (at 1, 3, 10, 30, or 50 µM) for 24 h. Culture supernatants were then removed and CCK-8 was added. […] Data are expressed as the means ± SDs of triplicate experiments.

[3] = tested on: human acute promyelocytic leukemia (HL-60) cells; experiment: Cytotoxicity test, CCK-8 assay; settings: 50 µM, 24 h, CCK-8
Method: as §1, §2, §3

[4] = molecular target: T1, AChE (Electrophorus electricus, UniProt O42275); experiment: Kinetics of AChE inhibition (Lineweaver-Burk and secondary plots); format: biochemical
T1 sequence (O42275 24-633): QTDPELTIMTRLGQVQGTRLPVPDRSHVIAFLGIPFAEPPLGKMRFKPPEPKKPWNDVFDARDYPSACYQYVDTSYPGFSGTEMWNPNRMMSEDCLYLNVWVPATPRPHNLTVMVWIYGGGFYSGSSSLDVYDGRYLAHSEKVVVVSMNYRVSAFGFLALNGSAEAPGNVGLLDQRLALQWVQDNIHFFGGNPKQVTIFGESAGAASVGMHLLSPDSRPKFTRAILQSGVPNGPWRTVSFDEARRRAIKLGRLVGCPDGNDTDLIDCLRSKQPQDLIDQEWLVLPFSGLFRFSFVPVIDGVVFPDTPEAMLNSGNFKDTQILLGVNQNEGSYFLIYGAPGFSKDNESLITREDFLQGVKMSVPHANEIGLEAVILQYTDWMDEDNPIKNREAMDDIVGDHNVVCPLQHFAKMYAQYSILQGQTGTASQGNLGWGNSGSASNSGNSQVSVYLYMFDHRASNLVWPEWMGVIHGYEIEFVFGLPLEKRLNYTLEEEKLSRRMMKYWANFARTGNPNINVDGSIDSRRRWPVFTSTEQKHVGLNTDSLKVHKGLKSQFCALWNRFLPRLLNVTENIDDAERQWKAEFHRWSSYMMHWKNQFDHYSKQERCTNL
Method: (§4) Inhibitory patterns and Ki values were determined using Lineweaver–Burk (LB) plots and secondary plots of LB slopes.
Substrate concentrations ranged from 0.05 to 1.0 mM. […] Initial reaction rates are expressed as increases in absorbance per min.

[5] = molecular target: T1, AChE; experiment: Reversibility of AChE inhibition by dialysis; format: biochemical
Method: (§5) After preincubating three compounds or reference inhibitors with enzymes for 15 min, residual activities of undialyzed (AU) and dialyzed (AD) samples were expressed as percentages of those of non-inhibitor treated controls. Reversibilities were assessed using AU and AD values and compared with those of reference compounds.
(§6) After preincubating the compounds with enzymes for 15 min, the mixtures were dialyzed for 6 h with two buffer changes. Results are the averages of duplicate or triplicate experiments.

[6] = tested on: MAO-B; settings: rat brain mitochondrial fractions; cited from earlier work
[7] = molecular target: T2, MAO-B (Homo sapiens, UniProt P27338); experiment: Kinetics of MAO-B inhibition (Lineweaver-Burk and secondary plots); format: biochemical
T2 construct: purchased Sigma-Aldrich
T2 sequence (P27338 1-520): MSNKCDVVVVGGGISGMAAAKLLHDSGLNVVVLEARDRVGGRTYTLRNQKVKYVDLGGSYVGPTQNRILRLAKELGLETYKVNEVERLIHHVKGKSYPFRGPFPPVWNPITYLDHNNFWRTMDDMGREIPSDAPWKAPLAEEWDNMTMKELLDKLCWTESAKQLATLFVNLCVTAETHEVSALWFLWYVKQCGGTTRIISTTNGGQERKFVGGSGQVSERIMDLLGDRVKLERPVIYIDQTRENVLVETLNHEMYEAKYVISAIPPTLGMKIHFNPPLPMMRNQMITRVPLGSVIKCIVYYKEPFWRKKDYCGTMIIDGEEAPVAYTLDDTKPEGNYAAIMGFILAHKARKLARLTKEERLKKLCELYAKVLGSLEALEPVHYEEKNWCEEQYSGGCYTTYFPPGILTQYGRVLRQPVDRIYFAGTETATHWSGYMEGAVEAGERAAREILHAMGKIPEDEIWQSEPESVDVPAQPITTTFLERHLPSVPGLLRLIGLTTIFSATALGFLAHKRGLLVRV
Method: as §4

[8] = molecular target: T2, MAO-B; experiment: Reversibility of MAO-B inhibition by dialysis; format: biochemical
Method: as §5, §6

[9] = molecular target: T3, BACE-1 (Homo sapiens, UniProt P56817); experiment: BACE-1 activity detection kit (fluorescence); format: biochemical; settings: read-out: Residual activity at 10 µM (%) BACE-1
T3 construct: purchased Sigma-Aldrich
T3 sequence (P56817 46-457): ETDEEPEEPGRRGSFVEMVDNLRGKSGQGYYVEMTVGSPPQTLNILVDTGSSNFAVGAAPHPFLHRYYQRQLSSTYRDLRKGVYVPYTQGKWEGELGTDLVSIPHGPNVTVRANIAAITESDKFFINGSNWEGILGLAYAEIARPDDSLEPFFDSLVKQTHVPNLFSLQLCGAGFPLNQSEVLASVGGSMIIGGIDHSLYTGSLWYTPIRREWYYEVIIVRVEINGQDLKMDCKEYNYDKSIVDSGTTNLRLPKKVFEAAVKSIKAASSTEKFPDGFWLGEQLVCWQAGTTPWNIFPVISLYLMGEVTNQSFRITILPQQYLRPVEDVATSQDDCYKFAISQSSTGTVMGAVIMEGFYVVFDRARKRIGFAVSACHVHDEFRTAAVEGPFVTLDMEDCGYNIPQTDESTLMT

[10] = molecular target: T4, Recombinant human MAO-A (Homo sapiens, UniProt P21397); experiment: biochemical
T4 construct: purchased Sigma-Aldrich
T4 sequence (P21397 1-527): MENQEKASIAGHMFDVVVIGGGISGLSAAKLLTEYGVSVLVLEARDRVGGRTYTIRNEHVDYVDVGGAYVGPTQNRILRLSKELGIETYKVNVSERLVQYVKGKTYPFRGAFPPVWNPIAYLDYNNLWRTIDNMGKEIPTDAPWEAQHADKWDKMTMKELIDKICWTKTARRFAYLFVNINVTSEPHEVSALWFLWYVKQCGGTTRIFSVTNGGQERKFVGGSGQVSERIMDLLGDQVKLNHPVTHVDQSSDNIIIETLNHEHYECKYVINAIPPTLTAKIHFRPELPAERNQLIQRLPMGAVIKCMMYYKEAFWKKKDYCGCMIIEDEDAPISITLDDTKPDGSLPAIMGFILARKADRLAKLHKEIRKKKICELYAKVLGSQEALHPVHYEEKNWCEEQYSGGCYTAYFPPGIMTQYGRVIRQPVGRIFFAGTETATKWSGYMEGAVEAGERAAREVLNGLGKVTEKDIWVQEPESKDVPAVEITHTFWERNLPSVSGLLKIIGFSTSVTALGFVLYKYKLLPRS
Method: (§7) AChE and BChE inhibitory activities were measured after preincubating enzymes with inhibitors for 15 min before adding substrates (ATCI and BTCI, respectively) and DTNB. AChE activities were assayed as previously described, with slight modification[21],[22]. […] MAO-A and MAO-B activities were determined using a continuous spectrophotometric method, as described previously[23],[24]. […] Reaction rates are expressed as changes in absorbance per min.
as §4

[11] = molecular target: T2, MAO-B; experiment: biochemical
Method: as §7, §4

[12] = molecular target: AChE (Type VI-S from Electrophorus electricus) (Electrophorus electricus, UniProt O42275); experiment: biochemical
Sequence of AChE (Type VI-S from Electrophorus electricus) (O42275 24-633): as the sequence (O42275 24-633) above
Method: as §7, with “min. […]” for “min.”

[13] = molecular target: T5, BChE (equine serum) (Equus caballus, UniProt P81908); experiment: biochemical
T5 construct: BChE (equine serum); purchased Sigma-Aldrich; host or cells: equine serum
T5 sequence (P81908 whole entry): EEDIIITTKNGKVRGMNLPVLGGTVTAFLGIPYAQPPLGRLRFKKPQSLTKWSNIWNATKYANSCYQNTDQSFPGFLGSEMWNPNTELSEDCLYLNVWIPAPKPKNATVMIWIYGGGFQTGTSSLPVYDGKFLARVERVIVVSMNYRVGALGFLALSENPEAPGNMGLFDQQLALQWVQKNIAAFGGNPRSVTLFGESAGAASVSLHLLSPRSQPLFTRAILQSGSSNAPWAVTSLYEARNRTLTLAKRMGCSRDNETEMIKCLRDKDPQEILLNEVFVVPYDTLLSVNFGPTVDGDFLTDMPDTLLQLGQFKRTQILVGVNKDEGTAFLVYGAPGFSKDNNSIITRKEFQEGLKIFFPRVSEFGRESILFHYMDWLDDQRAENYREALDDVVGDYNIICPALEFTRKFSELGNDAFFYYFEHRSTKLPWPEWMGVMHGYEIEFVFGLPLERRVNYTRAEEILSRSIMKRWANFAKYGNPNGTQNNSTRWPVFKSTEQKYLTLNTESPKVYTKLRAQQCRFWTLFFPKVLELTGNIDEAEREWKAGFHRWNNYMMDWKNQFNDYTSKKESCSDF
Method: as §7, with “min. […]” for “min.”

For `O=c1oc2c(O)c(O)cc3c(=O)oc4c(O)c(O)cc1c4c23` [Compound 5, ellagic acid], the IC50 [1] is listed as 133 µM, the MDCK cell viability [2] is listed as “slightly or non-toxic; also recorded: negligible effects; also recorded: non-toxic or slightly toxic” and the HL-60 cell viability [3] is listed as “negligible effects; also recorded: non-toxic or slightly toxic”. For the same molecule, the Ki [4] was 9.43 ± 2.51 µM, the “Mode of AChE inhibition” value ([4]; LB plots) was “competitively; also recorded: competitive but partly mixed; also recorded: competitive but partially mixed” and the “Reversibility of AChE inhibition” value [5] was “reversibly; also recorded: reversible inhibitors”. The IC50 [6] was 0.412 µM, the Ki [7] was 7.51 ± 1.86 µM and the “Mode of MAO-B inhibition” value ([7]; LB plots) was “competitive”. The “Reversibility of MAO-B inhibition” value [8] was “reversible inhibitors”, the remaining activity at 10 µM [9] was 59.1 ± 0.3% and the IC50 [10] was over 40 µM. For the same molecule, the remaining activity at 10 µM ([10]; read-out: Residual activity at 10 µM (%) MAO-A) was 99.5 ± 0.7%, the IC50 [11] was 9.21 ± 0.16 µM and the inhibition at 10 µM ([11]; 10 µM) was over 50%. For the same molecule, the remaining activity at 10 µM ([11]; read-out: Residual activity at 10 µM (%) MAO-B) was 45.4 ± 4.1%, the IC50 [12] was 41.7 ± 2.4 µM and the SI ([12]; IC50 for BChE divided by IC50 for AChE) was over 1.0. It also gave a remaining activity at 10 µM ([12]; read-out: Residual activity at 10 µM (%) AChE) of 81.5 ± 4.2%, an IC50 [13] of over 40 µM and a remaining activity at 10 µM ([13]; read-out: Residual activity at 10 µM (%) BChE) of 96.9 ± 5.8%.
